This note sets out measurements from patent publication US11541028B2, “Peptide pharmaceuticals for treatment of NASH and other disorders” (Mederis Diabetes LLC, priority 2018, dated 2023).

Bridge positions count the residues as written; N and C are the ends. Square brackets hold non-standard residues; d marks the D form. Peptide text beside a SMILES is read from it. * marks the point of attachment. Melibiouronoyl(1β-O-dodecyl) = CCCCCCCCCCCCO[C@@H]1O[C@H](CO[C@H]2O[C@H](C(=O)*)[C@H](O)[C@H](O)[C@H]2O)[C@@H](O)[C@H](O)[C@H]1O; X1 = CCCCCCCCCCCCCCCCO[C@@H]1O[C@H](CO[C@H]2O[C@H](C(=O)*)[C@H](O)[C@H](O)[C@H]2O)[C@@H](O)[C@H](O)[C@H]1O; Aib = CC(C)(N)C(=O)O

One assay addresses T1, human GLP-1 receptor (Homo sapiens, UniProt P43220).
T1 construct: host or cells: CHO cells
Briefly: DiscoveRx LeadHunter cellular assay, cAMP stimulation, GLP-1 receptor in CHO cells. The assay is classed as cell-based. Conditions: human GLP-1 receptor in CHO cells (DiscoveRx); read-out: EC50 cAMP GLP-1 R.

A further assay has as its target T2, human glucagon receptor (Homo sapiens, UniProt P47871).
T2 construct: host or cells: CHO cells
Briefly: DiscoveRx LeadHunter cellular assay, cAMP stimulation, glucagon receptor in CHO cells. The assay is classed as cell-based.

T1 sequence (P43220 24-463): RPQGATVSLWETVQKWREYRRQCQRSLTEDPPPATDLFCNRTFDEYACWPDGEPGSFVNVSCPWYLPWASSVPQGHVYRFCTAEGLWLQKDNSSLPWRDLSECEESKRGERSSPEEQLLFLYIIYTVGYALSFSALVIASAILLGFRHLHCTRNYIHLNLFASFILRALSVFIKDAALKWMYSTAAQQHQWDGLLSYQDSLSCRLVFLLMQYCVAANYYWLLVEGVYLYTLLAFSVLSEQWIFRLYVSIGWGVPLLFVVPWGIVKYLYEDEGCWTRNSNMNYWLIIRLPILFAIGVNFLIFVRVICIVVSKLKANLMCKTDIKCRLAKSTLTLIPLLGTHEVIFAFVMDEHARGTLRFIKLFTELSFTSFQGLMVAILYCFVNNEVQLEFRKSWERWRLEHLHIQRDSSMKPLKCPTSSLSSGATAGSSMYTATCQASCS
T2 sequence (P47871 26-477): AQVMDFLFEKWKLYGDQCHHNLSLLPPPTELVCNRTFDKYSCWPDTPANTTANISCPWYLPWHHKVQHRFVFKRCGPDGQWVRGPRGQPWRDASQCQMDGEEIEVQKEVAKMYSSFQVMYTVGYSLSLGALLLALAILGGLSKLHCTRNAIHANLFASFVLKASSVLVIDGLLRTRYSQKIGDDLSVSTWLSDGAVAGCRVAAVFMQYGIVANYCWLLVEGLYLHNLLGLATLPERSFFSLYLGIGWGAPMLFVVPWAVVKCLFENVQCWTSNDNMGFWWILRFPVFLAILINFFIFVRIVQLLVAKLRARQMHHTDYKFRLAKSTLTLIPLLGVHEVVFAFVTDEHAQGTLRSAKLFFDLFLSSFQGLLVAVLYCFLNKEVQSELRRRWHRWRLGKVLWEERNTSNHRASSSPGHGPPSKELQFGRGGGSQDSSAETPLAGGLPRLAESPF
Method for human GLP-1 receptor: (§1) A further series of cellular assays was carried out with standard cellular assays (DiscoveRx, LeadHunter assays) using readout of cAMP stimulation or arrestin activation. Compounds were weighed precisely in an amount of about 1 mg and shipped to DiscoveRx for dilution and assay.
Method for human glucagon receptor: as §1

Turning to `CCCCCCCCCCCCCCCCO[C@@H]1O[C@H](CO[C@H]2O[C@H](C(=O)NCCCC[C@H](NC(=O)[C@H](CC(=O)O)NC(=O)[C@H](CO)NC(=O)[C@@H](NC(=O)[C@H](Cc3ccccc3)NC(=O)[C@@H](NC(=O)CNC(=O)[C@H](CCC(N)=O)NC(=O)C(C)(C)NC(=O)[C@@H](N)Cc3c[nH]cn3)[C@@H](C)O)[C@@H](C)O)C(=O)N[C@@H](CO)C(=O)N[C@@H](CCCCN)C(=O)N[C@@H](Cc3ccc(O)cc3)C(=O)N[C@@H](CC(C)C)C(=O)N[C@@H](CC(=O)O)C(=O)N[C@H]3CCC(=O)NCCCC[C@@H](C(=O)N[C@@H](CCC(=O)O)C(=O)N[C@@H](Cc4ccccc4)C(=O)N[C@H](C(=O)N[C@@H](CCC(N)=O)C(=O)N[C@@H](Cc4c[nH]c5ccccc45)C(=O)N[C@@H](CC(C)C)C(=O)N[C@@H](CC(C)C)C(=O)N[C@@H](CCC(N)=O)C(=O)N[C@H](C(N)=O)[C@@H](C)O)[C@@H](C)CC)NC(=O)[C@H](C)NC(=O)[C@H](C)NC(=O)[C@H](CCC(N)=O)NC3=O)[C@H](O)[C@H](O)[C@H]2O)[C@@H](O)[C@H](O)[C@H]1O` [EU-A1596] (H-H[Aib]QGTFTSDK(X1)SKYLDEQAAKEFIQWLLQT-NH2; lactam 16-20; N-terminus assumed), the EC50 at human GLP-1 receptor came to 0.493 nM; at human glucagon receptor, 1.23 nM.

Regarding `CCCCCCCCCCCCO[C@@H]1O[C@H](CO[C@H]2O[C@H](C(=O)NCCCC[C@H](NC(=O)[C@H](CC(=O)O)NC(=O)[C@H](CO)NC(=O)[C@@H](NC(=O)[C@H](Cc3ccccc3)NC(=O)[C@@H](NC(=O)CNC(=O)[C@H](CCC(N)=O)NC(=O)C(C)(C)NC(=O)[C@@H](N)Cc3c[nH]cn3)[C@@H](C)O)[C@@H](C)O)C(=O)N[C@@H](CO)C(=O)N[C@@H](CCCCN)C(=O)N[C@@H](Cc3ccc(O)cc3)C(=O)N[C@@H](CC(C)C)C(=O)N[C@@H](CC(=O)O)C(=O)N[C@H]3CCC(=O)NCCCC[C@@H](C(=O)N[C@@H](CCC(=O)O)C(=O)N[C@@H](Cc4ccccc4)C(=O)N[C@H](C(=O)N[C@@H](CCC(=O)O)C(=O)N[C@@H](Cc4c[nH]c5ccccc45)C(=O)N[C@@H](CC(C)C)C(=O)N[C@@H](CC(C)C)C(=O)N[C@@H](CCC(N)=O)C(=O)N[C@H](C(N)=O)[C@@H](C)O)[C@@H](C)CC)NC(=O)[C@H](C)NC(=O)[C@H](C)NC(=O)[C@H](CCC(N)=O)NC3=O)[C@H](O)[C@H](O)[C@H]2O)[C@@H](O)[C@H](O)[C@H]1O` [EU-A1598] (H-H[Aib]QGTFTSDK(Melibiouronoyl(1β-O-dodecyl))SKYLDEQAAKEFIEWLLQT-NH2; lactam 16-20; N-terminus assumed), the results for the EC50 on human GLP-1 receptor and on human glucagon receptor were 0.026 nM and 0.199 nM, respectively.

Consider `CCCCCCCCCCCCO[C@@H]1O[C@H](CO[C@H]2O[C@H](C(=O)NCCCC[C@H](NC(=O)[C@H](CC(=O)O)NC(=O)[C@H](CO)NC(=O)[C@@H](NC(=O)[C@H](Cc3ccccc3)NC(=O)[C@@H](NC(=O)CNC(=O)[C@H](CCC(N)=O)NC(=O)C(C)(C)NC(=O)[C@@H](N)Cc3c[nH]cn3)[C@@H](C)O)[C@@H](C)O)C(=O)N[C@@H](CO)C(=O)N[C@@H](CCCCN)C(=O)N[C@@H](Cc3ccc(O)cc3)C(=O)N[C@@H](CC(C)C)C(=O)N[C@@H](CC(=O)O)C(=O)N[C@H]3CCC(=O)NCCCC[C@@H](C(=O)N[C@@H](CCC(=O)O)C(=O)N[C@@H](Cc4ccccc4)C(=O)N[C@H](C(=O)N[C@@H](CCC(=O)O)C(=O)N[C@@H](Cc4c[nH]c5ccccc45)C(=O)N[C@@H](CC(C)C)C(=O)N[C@@H](CC(C)C)C(=O)N[C@@H](CCC(N)=O)C(=O)N[C@H](C(=O)O)[C@@H](C)O)[C@@H](C)CC)NC(=O)[C@H](C)NC(=O)[C@H](C)NC(=O)[C@H](CCC(N)=O)NC3=O)[C@H](O)[C@H](O)[C@H]2O)[C@@H](O)[C@H](O)[C@H]1O` [EU-A1599] (H-H[Aib]QGTFTSDK(Melibiouronoyl(1β-O-dodecyl))SKYLDEQAAKEFIEWLLQT-OH; lactam 16-20; N-terminus assumed), for which the EC50 at human GLP-1 receptor worked out at 0.061 nM; on human glucagon receptor, 0.317 nM.

Turning to `CCCCCCCCCCCCO[C@@H]1O[C@H](CO[C@H]2O[C@H](C(=O)NCCCC[C@H](N)C(=O)NCCCC[C@H](NC(=O)[C@@H](NC(=O)[C@H](Cc3ccccc3)NC(=O)[C@H](CCC(=O)O)NC(=O)[C@@H]3CCCCNC(=O)CC[C@H](NC(=O)[C@H](CC(=O)O)NC(=O)[C@H](CC(C)C)NC(=O)[C@H](Cc4ccc(O)cc4)NC(=O)[C@H](CCCCN)NC(=O)[C@H](CO)NC(=O)[C@H](Cc4ccc(O)cc4)NC(=O)[C@H](CC(=O)O)NC(=O)[C@H](CO)NC(=O)[C@@H](NC(=O)[C@H](Cc4ccccc4)NC(=O)[C@@H](NC(=O)CNC(=O)[C@H](CCC(N)=O)NC(=O)C(C)(C)NC(=O)[C@@H](N)Cc4c[nH]cn4)[C@@H](C)O)[C@@H](C)O)C(=O)N[C@@H](CCC(N)=O)C(=O)N[C@@H](C)C(=O)N[C@@H](C)C(=O)N3)[C@@H](C)CC)C(=O)N[C@@H](Cc3c[nH]c4ccccc34)C(=O)N[C@@H](CC(C)C)C(=O)N[C@@H](CC(C)C)C(=O)N[C@@H](CCC(N)=O)C(=O)N[C@H](C(N)=O)[C@@H](C)O)[C@H](O)[C@H](O)[C@H]2O)[C@@H](O)[C@H](O)[C@H]1O` [EU-A1601], the values for the EC50 on human GLP-1 receptor and at human glucagon receptor were 0.007 nM and 0.048 nM, respectively.

Consider `CCCCCCCCCCCCCCO[C@@H]1O[C@H](CO[C@H]2O[C@H](C(=O)NCCCC[C@H](N)C(=O)NCCCC[C@H](NC(=O)[C@@H](NC(=O)[C@H](Cc3ccccc3)NC(=O)[C@H](CCC(=O)O)NC(=O)[C@@H]3CCCCNC(=O)CC[C@H](NC(=O)[C@H](CC(=O)O)NC(=O)[C@H](CC(C)C)NC(=O)[C@H](Cc4ccc(O)cc4)NC(=O)[C@H](CCCCN)NC(=O)[C@H](CO)NC(=O)[C@H](Cc4ccc(O)cc4)NC(=O)[C@H](CC(=O)O)NC(=O)[C@H](CO)NC(=O)[C@@H](NC(=O)[C@H](Cc4ccccc4)NC(=O)[C@@H](NC(=O)CNC(=O)[C@H](CCC(N)=O)NC(=O)C(C)(C)NC(=O)[C@@H](N)Cc4c[nH]cn4)[C@@H](C)O)[C@@H](C)O)C(=O)N[C@@H](CCC(N)=O)C(=O)N[C@@H](C)C(=O)N[C@@H](C)C(=O)N3)[C@@H](C)CC)C(=O)N[C@@H](Cc3c[nH]c4ccccc34)C(=O)N[C@@H](CC(C)C)C(=O)N[C@@H](CC(C)C)C(=O)N[C@@H](CCC(N)=O)C(=O)N[C@H](C(N)=O)[C@@H](C)O)[C@H](O)[C@H](O)[C@H]2O)[C@@H](O)[C@H](O)[C@H]1O` [EU-A1602], for which the figures for the EC50 at human GLP-1 receptor and on human glucagon receptor were 0.035 nM and 0.162 nM, respectively.

`CCCCCCCCCCCCO[C@@H]1O[C@H](CO[C@H]2O[C@H](C(=O)N[C@@H](CCC(=O)NCCCC[C@H](NC(=O)[C@@H](NC(=O)[C@H](Cc3ccccc3)NC(=O)[C@H](CCC(=O)O)NC(=O)[C@@H]3CCCCNC(=O)CC[C@H](NC(=O)[C@H](CC(=O)O)NC(=O)[C@H](CC(C)C)NC(=O)[C@H](Cc4ccc(O)cc4)NC(=O)[C@H](CCCCN)NC(=O)[C@H](CO)NC(=O)[C@H](Cc4ccc(O)cc4)NC(=O)[C@H](CC(=O)O)NC(=O)[C@H](CO)NC(=O)[C@@H](NC(=O)[C@H](Cc4ccccc4)NC(=O)[C@@H](NC(=O)CNC(=O)[C@H](CCC(N)=O)NC(=O)C(C)(C)NC(=O)[C@@H](N)Cc4c[nH]cn4)[C@@H](C)O)[C@@H](C)O)C(=O)N[C@@H](CCC(N)=O)C(=O)N[C@@H](C)C(=O)N[C@@H](C)C(=O)N3)[C@@H](C)CC)C(=O)N[C@@H](Cc3c[nH]c4ccccc34)C(=O)N[C@@H](CC(C)C)C(=O)N[C@@H](CC(C)C)C(=O)N[C@@H](CCC(N)=O)C(=O)N[C@H](C(N)=O)[C@@H](C)O)C(=O)O)[C@H](O)[C@H](O)[C@H]2O)[C@@H](O)[C@H](O)[C@H]1O` [EU-A1606]: the concentration giving a half-maximal response (EC50) on human GLP-1 receptor was found to be 0.017 nM; on human glucagon receptor it was 0.058 nM.

On to `CCCCCCCCCCCCCCO[C@@H]1O[C@H](CO[C@H]2O[C@H](C(=O)N[C@@H](CCC(=O)NCCCC[C@H](NC(=O)[C@@H](NC(=O)[C@H](Cc3ccccc3)NC(=O)[C@H](CCC(=O)O)NC(=O)[C@@H]3CCCCNC(=O)CC[C@H](NC(=O)[C@H](CC(=O)O)NC(=O)[C@H](CC(C)C)NC(=O)[C@H](Cc4ccc(O)cc4)NC(=O)[C@H](CCCCN)NC(=O)[C@H](CO)NC(=O)[C@H](Cc4ccc(O)cc4)NC(=O)[C@H](CC(=O)O)NC(=O)[C@H](CO)NC(=O)[C@@H](NC(=O)[C@H](Cc4ccccc4)NC(=O)[C@@H](NC(=O)CNC(=O)[C@H](CCC(N)=O)NC(=O)C(C)(C)NC(=O)[C@@H](N)Cc4c[nH]cn4)[C@@H](C)O)[C@@H](C)O)C(=O)N[C@@H](CCC(N)=O)C(=O)N[C@@H](C)C(=O)N[C@@H](C)C(=O)N3)[C@@H](C)CC)C(=O)N[C@@H](Cc3c[nH]c4ccccc34)C(=O)N[C@@H](CC(C)C)C(=O)N[C@@H](CC(C)C)C(=O)N[C@@H](CCC(N)=O)C(=O)N[C@H](C(N)=O)[C@@H](C)O)C(=O)O)[C@H](O)[C@H](O)[C@H]2O)[C@@H](O)[C@H](O)[C@H]1O` [EU-A1607], for which the EC50 on human GLP-1 receptor worked out at 0.022 nM; at human glucagon receptor, 0.126 nM.

With `CCCCCCCCCCCCO[C@@H]1O[C@H](CO[C@H]2O[C@H](C(=O)NCCCC[C@H](N)C(=O)NCCCC[C@H](NC(=O)[C@@H](NC(=O)[C@H](Cc3ccccc3)NC(=O)[C@H](CCC(=O)O)NC(=O)[C@@H]3CCCCNC(=O)CC[C@H](NC(=O)[C@H](CC(=O)O)NC(=O)[C@H](CC(C)C)NC(=O)[C@H](Cc4ccc(O)cc4)NC(=O)[C@H](CCCCN)NC(=O)[C@H](CO)NC(=O)[C@H](Cc4ccc(O)cc4)NC(=O)[C@H](CC(=O)O)NC(=O)[C@H](CO)NC(=O)[C@@H](NC(=O)[C@H](Cc4ccccc4)NC(=O)[C@@H](NC(=O)CNC(=O)[C@H](CCC(N)=O)NC(=O)C(C)(C)NC(=O)[C@@H](N)Cc4c[nH]cn4)[C@@H](C)O)[C@@H](C)O)C(=O)N[C@@H](CCC(N)=O)C(=O)N[C@@H](C)C(=O)N[C@@H](C)C(=O)N3)[C@@H](C)CC)C(=O)N[C@@H](Cc3c[nH]c4ccccc34)C(=O)N[C@@H](CC(C)C)C(=O)N[C@@H](CC(C)C)C(=O)N[C@@H](CCC(N)=O)C(=O)N[C@H](C(=O)O)[C@@H](C)O)[C@H](O)[C@H](O)[C@H]2O)[C@@H](O)[C@H](O)[C@H]1O` [EU-A1611], the EC50 at human GLP-1 receptor came out at 0.015 nM; at human glucagon receptor it was 0.16 nM.

In general, EC50 refers to the concentration that produces a half-maximal response.
